Measured values published in the supplement of paper PMC11208160.

Experiment: recombinant UMI read abundance after kanamycin selection (control-corrected) (log10(CPM+1)); higher = more efficient recombination; extreme values may be limits of the assay; sequences stand for … in AGTGCAGAGAAAATCGGCCAGTTTTCTCTGCCTGCAGTCCGCATGCCGTGGGACCCCTTGGGTTCTAACCTGTTGCCTAGATTTATGCAGCGGACTGCCTTTCTCCCAAAGTGATAAACCGG…AGGTTGGTTTCACT; site = the 11-nt donor
Method in brief: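 Sequenced counts of recombinant UMIs were turned into CPM, averaged across replicates and scaled with control-derived factors. The reported figure is log10(CPM+1). Those UMIs, each 12 nt long, tagged donor and donor-binding-loop pairs on a plasmid with a promoterless kanamycin gene, screened as a pool in Escherichia coli with IPTG (0.07 mM) plus kanamycin or without selection.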
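Note: IS621 bridge recombinase in Escherichia coli cells against a fixed T5 target plasmid.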

Sequence: TGTCGCGCATGGACCGGTTTTCCCGGTAATCCGTATTTGCA (site TGTCGCGCTTG)
- recombinant UMI read abundance (log10): 0.897

Sequence: TGTCGGACATGGACCGGTTTTCCCGGTAATCCGTATTTGCG (site TGTCGGACTCG)
- recombinant UMI read abundance (log10): 1.4

Sequence: TGTGCACCATGGACCGGTTTTCCCGGTAATCCGTATTTGAC (site TGTACACCTGT)
- recombinant UMI read abundance (log10): 0

Sequence: TGTGCACCATGGACCGGTTTTCCCGGTAATCCGTATTTGAC (site TGTCCACCTGT)
- recombinant UMI read abundance (log10): 0.0317

Sequence: TGTGCACCATGGACCGGTTTTCCCGGTAATCCGTATTTGAC (site TGTGCACCTGT)
- recombinant UMI read abundance (log10): 0

Sequence: TGTGCACCATGGACCGGTTTTCCCGGTAATCCGTATTTGAC (site TGTTCACCTGT)
- recombinant UMI read abundance (log10): 0

Sequence: TGTGCCCCATGGACCGGTTTTCCCGGTAATCCGTATTTGTA (site TGTACCCCTTA)
- recombinant UMI read abundance (log10): 0.126

Sequence: TGTGCCCCATGGACCGGTTTTCCCGGTAATCCGTATTTGTA (site TGTCCCCCTTA)
- recombinant UMI read abundance (log10): 0.0113

Sequence: TGTGCCCCATGGACCGGTTTTCCCGGTAATCCGTATTTGTA (site TGTGCCCCTTA)
- recombinant UMI read abundance (log10): 0.0922

Sequence: TGTGCCCCATGGACCGGTTTTCCCGGTAATCCGTATTTGTA (site TGTTCCCCTTA)
- recombinant UMI read abundance (log10): 0.0156

Sequence: TGTGCTGCATGGACCGGTTTTCCCGGTAATCCGTATTTGAA (site TGTGCTGCTTT)
- recombinant UMI read abundance (log10): 0.011

Sequence: TGTGGAACATGGACCGGTTTTCCCGGTAATCCGTATTTGTT (site AGTGGAACTAA)
- recombinant UMI read abundance (log10): 0.0127

Sequence: TGTGGAACATGGACCGGTTTTCCCGGTAATCCGTATTTGTT (site CGTGGAACTAA)
- recombinant UMI read abundance (log10): 0.0659

Sequence: TGTGGAACATGGACCGGTTTTCCCGGTAATCCGTATTTGTT (site GGTGGAACTAA)
- recombinant UMI read abundance (log10): 0

Sequence: TGTGGAACATGGACCGGTTTTCCCGGTAATCCGTATTTGTT (site TGTGGAACTAA)
- recombinant UMI read abundance (log10): 0.511

Sequence: TGTGTAACATGGACCGGTTTTCCCGGTAATCCGTATTTGAC (site TGTGTAACTGT)
- recombinant UMI read abundance (log10): 0

Sequence: TGTTAGGCATGGACCGGTTTTCCCGGTAATCCGTATTTGGT (site TGATAGGCTAC)
- recombinant UMI read abundance (log10): 0.0087

Sequence: TGTTAGGCATGGACCGGTTTTCCCGGTAATCCGTATTTGGT (site TGCTAGGCTAC)
- recombinant UMI read abundance (log10): 0.304

Sequence: TGTTAGGCATGGACCGGTTTTCCCGGTAATCCGTATTTGGT (site TGGTAGGCTAC)
- recombinant UMI read abundance (log10): 0.017

Sequence: TGTTAGGCATGGACCGGTTTTCCCGGTAATCCGTATTTGGT (site TGTTAGGCTAC)
- recombinant UMI read abundance (log10): 0.273

Sequence: TGTTCACCATGGACCGGTTTTCCCGGTAATCCGTATTTGAC (site TGTACACCTGT)
- recombinant UMI read abundance (log10): 0

Sequence: TGTTCACCATGGACCGGTTTTCCCGGTAATCCGTATTTGAC (site TGTCCACCTGT)
- recombinant UMI read abundance (log10): 0

Sequence: TGTTCACCATGGACCGGTTTTCCCGGTAATCCGTATTTGAC (site TGTGCACCTGT)
- recombinant UMI read abundance (log10): 0

Sequence: TGTTCACCATGGACCGGTTTTCCCGGTAATCCGTATTTGAC (site TGTTCACCTGT)
- recombinant UMI read abundance (log10): 0

Sequence: TGTTCCCCATGGACCGGTTTTCCCGGTAATCCGTATTTGTG (site TGTTCCCCTAA)
- recombinant UMI read abundance (log10): 0.00613

Sequence: TGTTCCCCATGGACCGGTTTTCCCGGTAATCCGTATTTGTG (site TGTTCCCCTCA)
- recombinant UMI read abundance (log10): 0.0316

Sequence: TGTTCCCCATGGACCGGTTTTCCCGGTAATCCGTATTTGTG (site TGTTCCCCTGA)
- recombinant UMI read abundance (log10): 0

Sequence: TGTTCCCCATGGACCGGTTTTCCCGGTAATCCGTATTTGTG (site TGTTCCCCTTA)
- recombinant UMI read abundance (log10): 0

Sequence: TGTTCCCCATGGACCGGTTTTCCCGGTAATCCGTATTTGTT (site TGTTCCCCTAA)
- recombinant UMI read abundance (log10): 0.014

Sequence: TGTTCCCCATGGACCGGTTTTCCCGGTAATCCGTATTTGTT (site TGTTCCCCTCA)
- recombinant UMI read abundance (log10): 0.0148

Sequence: TGTTCCCCATGGACCGGTTTTCCCGGTAATCCGTATTTGTT (site TGTTCCCCTGA)
- recombinant UMI read abundance (log10): 0

Sequence: TGTTCCCCATGGACCGGTTTTCCCGGTAATCCGTATTTGTT (site TGTTCCCCTTA)
- recombinant UMI read abundance (log10): 0.0133
